Measurements reported in US4861788A, “Antibacterial 1-normon-2-yl-heterocyclic compounds” (Beecham Group plc, priority 1983, dated 1989).
Values after ≈ are worked out from the molar mass of the structure shown. Where two headings read alike, the source gives them in different places.

What was measured:
[1] = tested on: M. pneumoniae ATCC 15492; test: MIC against Mycoplasma in vitro (Friis broth with agarose); format: cell-based; conditions: Mycoplasmoides pneumoniae, ATCC15492, 144 h
[2] = tested on: M. hyopneumoniae PW/C/210; test: as above; format: cell-based; conditions: Mesomycoplasma hyopneumoniae, 144 h
[3] = tested on: Staph. aureus Oxford; test: MIC against veterinary bacteria in vitro (Diagnostic Sensitivity Test Agar); conditions: Staphylococcus aureus, 18 h
Method: (§2) The activity of the normonyl derivatives of the Examples against various veterinarily important bacteria, was assayed in vitro using two-fold serial dilutions in Diagnostic Sensitivity Test Agar inoculated with 10^4 organisms.

[4] = tested on: M. hyorhinis ATCC 23234; test: MIC against Mycoplasma in vitro (Friis broth with agarose); format: cell-based; conditions: Mesomycoplasma hyorhinis, ATCC23234, 144 h
[5] = tested on: Strep. pneumoniae CN33; test: MIC against human bacteria in vitro (nutrient agar, chocolated horse blood); format: cell-based; conditions: Streptococcus pneumoniae
How it was run: (§1)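 Agar dilution series; medium supplemented with 5% chocolated horse blood; MIC taken from the dilution series.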

[6] = tested on: Haemophilus influenzae Q1; test: as above; format: cell-based
How it was run: as §1

[7] = tested on: Neisseria catarrhalis 1502; test: as above; format: cell-based
How it was run: as §1

[8] = tested on: M. hyopneumoniae NB12; test: MIC against Mycoplasma in vitro (Friis broth with agarose); format: cell-based; conditions: Mesomycoplasma hyopneumoniae
[9] = tested on: M. bovigenitalium ATCC 14173; test: as above; format: cell-based; conditions: 144 h
[10] = tested on: M. hyopneumoniae JF 435; test: as above; format: cell-based; conditions: Mesomycoplasma hyopneumoniae, JF435, 144 h
[11] = tested on: M. dispar NCTC 10125; test: as above; format: cell-based; conditions: 144 h
[12] = tested on: Strep. dysgalactiae SPD1; test: MIC against veterinary bacteria in vitro (Diagnostic Sensitivity Test Agar); conditions: Streptococcus dysgalactiae, SPD1, 18 h
Method: as §2

[13] = tested on: M. hyopneumoniae Str. 11; test: MIC against Mycoplasma in vitro (Friis broth with agarose); format: cell-based; conditions: Mesomycoplasma hyopneumoniae
[14] = tested on: Strep. suis (group D) SPS11; test: MIC against veterinary bacteria in vitro (Diagnostic Sensitivity Test Agar); conditions: Streptococcus suis, 18 h
Method: as §2

[15] = tested on: Past. multocida PA2; test: as above; conditions: Pasteurella multocida, PA2, 18 h
Method: as §2

[16] = tested on: M. hyorhinis ATCC 25021; test: MIC against Mycoplasma in vitro (Friis broth with agarose); format: cell-based; conditions: Mesomycoplasma hyorhinis, ATCC25021, 144 h
[17] = tested on: M. hyopneumoniae LABER; test: as above; format: cell-based; conditions: Mesomycoplasma hyopneumoniae, 144 h
[18] = tested on: M. gallisepticum S6; test: as above; format: cell-based; conditions: Mycoplasmoides gallisepticum
[19] = tested on: Bord. bronchiseptica B08; test: MIC against veterinary bacteria in vitro (Diagnostic Sensitivity Test Agar); conditions: Bordetella bronchiseptica, B08, 18 h
Method: as §2

[20] = tested on: Past. multocida PA1; test: as above; conditions: Pasteurella multocida, PA1, 18 h
Method: as §2

[21] = tested on: S. typhimurium S18; test: as above; conditions: Salmonella enterica, 18 h
Method: as §2

[22] = tested on: Past. haemolytica PA5; test: as above; conditions: Mannheimia haemolytica, PA5, 18 h
Method: as §2

[23] = tested on: M. hyopneumoniae MS 16; test: MIC against Mycoplasma in vitro (Friis broth with agarose); format: cell-based; conditions: Mesomycoplasma hyopneumoniae, MS16, 144 h
[24] = tested on: Staph. aureus B4 (pen. resistant); test: MIC against veterinary bacteria in vitro (Diagnostic Sensitivity Test Agar); conditions: Staphylococcus aureus, 18 h
Method: as §2

[25] = tested on: M. hyopneumoniae HK (2); test: MIC against Mycoplasma in vitro (Friis broth with agarose); format: cell-based; conditions: Mesomycoplasma hyopneumoniae, 144 h
[26] = tested on: B. subtilis ATCC 6633; test: MIC against veterinary bacteria in vitro (Diagnostic Sensitivity Test Agar); conditions: Bacillus subtilis, ATCC6633, 18 h
Method: as §2

[27] = M. pneumoniae ATCC 15492, 6 days at 37° C, read-out: MIC
[28] = M. hyopneumoniae PW/C/210, 6 days at 37° C, read-out: MIC
[29] = M. hyorhinis ATCC 23234, 6 days at 37° C, read-out: MIC
[30] = 144 h, M. hyopneumoniae NB12, 6 days at 37° C, read-out: MIC
[31] = M. hyopneumoniae JF 435, 6 days at 37° C, read-out: MIC
[32] = M. dispar NCTC 10125, 6 days at 37° C, read-out: MIC
[33] = 144 h, M. hyopneumoniae Str. 11, 6 days at 37° C, read-out: MIC
[34] = M. hyorhinis ATCC 25021, 6 days at 37° C, read-out: MIC
[35] = M. hyopneumoniae LABER, 6 days at 37° C, read-out: MIC
[36] = 144 h, M. gallisepticum S6, 6 days at 37° C, read-out: MIC
[37] = M. hyopneumoniae MS 16, 6 days at 37° C, read-out: MIC
[38] = M. bovigenitalium ATCC 14173, 6 days at 37° C, read-out: MIC

Structure (SMILES) | MIC [1, 27] [µg/mL] | MIC [2, 28] [µg/mL] | MIC [3] [µg/mL] | MIC [4, 29] [µg/mL] | MIC ([5]; CN33, 18 h) [µg/mL] | MIC [8, 30] [µg/mL] | MIC [9] [µg/mL] | MIC [12] [µg/mL] | MIC [13, 33] [µg/mL] | MIC [14] [µg/mL] | MIC [15] [µg/mL] | MIC [16, 34] [µg/mL] | MIC [17, 35] [µg/mL] | MIC [18, 36] [µg/mL] | MIC [19] [µg/mL] | MIC [20] [µg/mL] | MIC [21] [µg/mL] | MIC [22] [µg/mL] | MIC [23, 37] [µg/mL] | MIC [24] [µg/mL] | also measured
CC(=Cc1nnc(-c2ccccc2)o1)CC1OCC(CC2OC2C(C)C(C)O)C(O)C1O (stereo not drawn) [Example 1, 2-(1-Normon-2-yl)-5-phenyl-1,3,4-oxadiazole A] | > 10 | 2.5 (≈ 5.62 µM) | 5 (≈ 11.2 µM) | 2.5 (≈ 5.62 µM) | 100 (≈ 225 µM) | 2.5 (≈ 5.62 µM) | 0.1 (≈ 0.225 µM) | 10 (≈ 22.5 µM) | 2.5 (≈ 5.62 µM) | 80 (≈ 180 µM) | 1.25 (≈ 2.81 µM) | 1 (≈ 2.25 µM) | 2.5 (≈ 5.62 µM) | > 10 | > 80 | 10 (≈ 22.5 µM) | > 80 | 10 (≈ 22.5 µM) | 2.5 (≈ 5.62 µM) | 5 (≈ 11.2 µM) | MIC ([6]; human, Haemophilus influenzae Q1, 18 hours at 37° C, read-out: MIC): 2.5 µg/mL (≈ 5.62 µM); MIC ([7]; human, Neisseria catarrhalis 1502, 18 hours at 37° C, read-out: MIC): 2.5 µg/mL (≈ 5.62 µM); MIC [10, 31]: 5 µg/mL (≈ 11.2 µM); MIC [11, 32]: 0.5 µg/mL (≈ 1.12 µM)
CC(=Cc1nnc(-c2cccc([N+](=O)[O-])c2)o1)CC1OCC(CC2OC2C(C)C(C)O)C(O)C1O (stereo not drawn) [Example 2, 2-m-Nitrophenyl-5-(1-normon-2-yl)-1,3,4-oxadiazole A] | 2.5 (≈ 5.11 µM) | – | 20 (≈ 40.9 µM) | 0.025 (≈ 0.0511 µM) | – | – | – | 5 (≈ 10.2 µM) | 0.025 (≈ 0.0511 µM) | > 80 | 1.25 (≈ 2.55 µM) | 0.025 (≈ 0.0511 µM) | 0.025 (≈ 0.0511 µM) | > 10 | > 80 | 2.5 (≈ 5.11 µM) | > 80 | 10 (≈ 20.4 µM) | 0.025 (≈ 0.0511 µM) | 5 (≈ 10.2 µM) | MIC [25]: 0.05 µg/mL (≈ 0.102 µM); MIC ([5]; human, Strep. pneumoniae CN33, 18 hours at 37° C, read-out: MIC): 32 µg/mL (≈ 65.4 µM); MIC ([7]; Neisseria, 1502, 18 h): 0.5 µg/mL (≈ 1.02 µM); MIC ([8]; NB12, 144 h): 0.05 µg/mL (≈ 0.102 µM); MIC [9, 38]: 0.025 µg/mL (≈ 0.0511 µM); MIC [10]: 0.05 µg/mL (≈ 0.102 µM); MIC [11, 32]: < 0.01 µg/mL
CC(=Cc1nnc(-c2ccc(S(C)(=O)=O)cc2)o1)CC1OCC(CC2OC2C(C)C(C)O)C(O)C1O (stereo not drawn) [Example 4, 2-p-Methylsulphonylphenyl-5-(1-normon-2-yl)-1,3,4-oxadiazole A] | > 10 | 0.1 (≈ 0.191 µM) | 10 (≈ 19.1 µM) | 0.1 (≈ 0.191 µM) | – | 0.25 (≈ 0.478 µM) | – | 10 (≈ 19.1 µM) | 0.25 (≈ 0.478 µM) | 80 (≈ 153 µM) | 1.25 (≈ 2.39 µM) | 0.1 (≈ 0.191 µM) | 0.25 (≈ 0.478 µM) | > 10 | > 80 | 2.5 (≈ 4.78 µM) | > 80 | 20 (≈ 38.3 µM) | 0.1 (≈ 0.191 µM) | 5 (≈ 9.57 µM) | MIC ([25]; M. hyopneumoniae HK (2), 6 days at 37° C, read-out: MIC): 0.25 µg/mL (≈ 0.478 µM); MIC [9, 38]: 0.25 µg/mL (≈ 0.478 µM); MIC [10, 31]: 0.25 µg/mL (≈ 0.478 µM); MIC [26]: 5 µg/mL (≈ 9.57 µM)
CC(=CC(=O)NN)CC1OCC(CC2OC2C(C)C(C)O)C(O)C1O (stereo not drawn) [Example 9, Monohydrazide A] | – | – | – | – | ≥ 100 | – | 0.5 (≈ 1.39 µM) | > 80 | – | > 80 | 80 (≈ 223 µM) | – | – | – | > 80 | 40 (≈ 112 µM) | > 80 | 40 (≈ 112 µM) | – | 80 (≈ 223 µM) | MIC [1]: > 10 µg/mL; MIC [2]: 5 µg/mL (≈ 13.9 µM); MIC [4]: > 10 µg/mL; MIC [25]: 10 µg/mL (≈ 27.9 µM); MIC ([6]; Haemophilus influenzae, Q1, 18 h): 2.5 µg/mL (≈ 6.97 µM); MIC ([7]; Neisseria, 1502, 18 h): 2.5 µg/mL (≈ 6.97 µM); MIC ([8]; NB12, 144 h): 10 µg/mL (≈ 27.9 µM); MIC [10]: 10 µg/mL (≈ 27.9 µM); MIC [11]: 2.5 µg/mL (≈ 6.97 µM); MIC ([13]; STR.11, 144 h): 5 µg/mL (≈ 13.9 µM); MIC [16]: 10 µg/mL (≈ 27.9 µM); MIC [17]: 5 µg/mL (≈ 13.9 µM); MIC ([18]; S6, 144 h): > 10 µg/mL; MIC [23]: 5 µg/mL (≈ 13.9 µM)
